{
  "source": "ChEMBL document CHEMBL3885881",
  "about": "“DrugMatrix”",
  "species": "Rattus norvegicus",
  "type": "toxicity, organism-based, Sprague-Dawley",
  "details": "in vivo, ip, 24 h, route intraperitoneal, time 1 day, vehicle .1 % RSA/SALINE",
  "key": {"[1]": {"details": "0 mg/kg, vehicle control, tissue Blood, dose level Control"}, "[2]": {"details": "0 mg/kg, vehicle control, tissue Plasma, dose level Control"}, "[3]": {"details": "0.01 mg/kg, tissue Blood, dose level High"}, "[4]": {"details": "0.01 mg/kg, tissue Plasma, dose level High"}},
  "description": "DrugMatrix - Regimen: Single",
  "data": [
    {"sequence": "INTERLEUKIN 1 BETA, RAT", "values": [
      {"measurement": "ABSOLUTE EOSINOPHIL", "setting": "[1]", "result": 109.33, "unit": "CELLS/uL"},
      {"measurement": "ABSOLUTE LYMPHOCYTE", "setting": "[1]", "result": 13180.67, "unit": "CELLS/uL"},
      {"measurement": "ABSOLUTE MONOCYTE", "setting": "[1]", "result": 354, "unit": "CELLS/uL"},
      {"measurement": "ABSOLUTE SEGMENTED NEUTROPHIL", "setting": "[1]", "result": 1756, "unit": "CELLS/uL"},
      {"measurement": "BASOPHIL", "setting": "[1]", "result": 0, "unit": "%"},
      {"measurement": "EOSINOPHIL", "setting": "[1]", "result": 0.67, "unit": "%"},
      {"measurement": "ERYTHROCYTE COUNT", "setting": "[1]", "result": 5.38, "unit": "x10E6/uL"},
      {"measurement": "HEMOGLOBIN", "setting": "[1]", "result": 12.57, "unit": "G/DL"},
      {"measurement": "LEUKOCYTE COUNT", "setting": "[1]", "result": 15.4, "unit": "x10E3/uL"},
      {"measurement": "LYMPHOCYTE", "setting": "[1]", "result": 85, "unit": "%"},
      {"measurement": "MEAN CORPUSCULAR HEMOGLOBIN", "setting": "[1]", "result": 23.37, "unit": "pg"},
      {"measurement": "MEAN CORPUSCULAR HEMOGLOBIN CONCENTRATION", "setting": "[1]", "result": 38.3, "unit": "G/DL"},
      {"measurement": "NEUTROPHIL", "setting": "[1]", "result": 12, "unit": "%"},
      {"measurement": "NUCLEATED RED BLOOD CELLS", "setting": "[1]", "result": "0 /100WBC"},
      {"measurement": "PLATELET COUNT", "setting": "[1]", "result": 832.33, "unit": "x10E3/uL"},
      {"measurement": "ALANINE AMINOTRANSFERASE", "setting": "[2]", "result": 37.33, "unit": "u/L"},
      {"measurement": "ALBUMIN", "setting": "[2]", "result": 4, "unit": "G/DL"},
      {"measurement": "ALKALINE PHOSPHATASE", "setting": "[2]", "result": 344.67, "unit": "u/L"},
      {"measurement": "ASPARTATE AMINOTRANSFERASE", "setting": "[2]", "result": 69.33, "unit": "u/L"},
      {"measurement": "BLOOD UREA NITROGEN", "setting": "[2]", "result": 13.67, "unit": "mg/dL"},
      {"measurement": "CARBON DIOXIDE", "setting": "[2]", "result": 28.33, "unit": "mmol/L"},
      {"measurement": "CHLORIDE", "setting": "[2]", "result": 99.67, "unit": "MEQ/L"},
      {"measurement": "CHOLESTEROL", "setting": "[2]", "result": 73.67, "unit": "mg/dL"},
      {"measurement": "CREATINE PHOSPHOKINASE", "setting": "[2]", "result": 270, "unit": "u/L"},
      {"measurement": "CREATININE", "setting": "[2]", "result": 0.19, "unit": "mg/dL"},
      {"measurement": "GLUCOSE", "setting": "[2]", "result": 176.33, "unit": "mg/dL"},
      {"measurement": "LACTATE DEHYDROGENASE", "setting": "[2]", "result": 160, "unit": "u/L"},
      {"measurement": "PHOSPHORUS", "setting": "[2]", "result": 13.47, "unit": "mg/dL"},
      {"measurement": "POTASSIUM", "setting": "[2]", "result": 6.77, "unit": "MEQ/L"},
      {"measurement": "TOTAL BILIRUBIN", "setting": "[2]", "result": 0.13, "unit": "mg/dL"},
      {"measurement": "TOTAL PROTEIN", "setting": "[2]", "result": 6.07, "unit": "G/DL"},
      {"measurement": "URIC ACID", "setting": "[2]", "result": 1.87, "unit": "mg/dL"},
      {"measurement": "ABSOLUTE EOSINOPHIL", "setting": "[3]", "result": 0, "unit": "CELLS/uL"},
      {"measurement": "ABSOLUTE LYMPHOCYTE", "setting": "[3]", "result": 13348, "unit": "CELLS/uL"},
      {"measurement": "ABSOLUTE MONOCYTE", "setting": "[3]", "result": 227.67, "unit": "CELLS/uL"},
      {"measurement": "ABSOLUTE SEGMENTED NEUTROPHIL", "setting": "[3]", "result": 3524.33, "unit": "CELLS/uL"},
      {"measurement": "BASOPHIL", "setting": "[3]", "result": 0, "unit": "%"},
      {"measurement": "EOSINOPHIL", "setting": "[3]", "result": 0, "unit": "%"},
      {"measurement": "ERYTHROCYTE COUNT", "setting": "[3]", "result": 5.11, "unit": "x10E6/uL"},
      {"measurement": "HEMATOCRIT", "setting": "[3]", "result": 31.33, "unit": "%"},
      {"measurement": "HEMOGLOBIN", "setting": "[3]", "result": 12.13, "unit": "G/DL"},
      {"measurement": "LEUKOCYTE COUNT", "setting": "[3]", "result": 17.1, "unit": "x10E3/uL"},
      {"measurement": "LYMPHOCYTE", "setting": "[3]", "result": 78, "unit": "%"},
      {"measurement": "MEAN CORPUSCULAR HEMOGLOBIN CONCENTRATION", "setting": "[3]", "result": 38.73, "unit": "G/DL"},
      {"measurement": "MEAN CORPUSCULAR VOLUME", "setting": "[3]", "result": 61.37, "unit": "fL"},
      {"measurement": "NEUTROPHIL", "setting": "[3]", "result": 20.67, "unit": "%"},
      {"measurement": "NUCLEATED RED BLOOD CELLS", "setting": "[3]", "result": "0.33 /100WBC"},
      {"measurement": "PLATELET COUNT", "setting": "[3]", "result": 933.33, "unit": "x10E3/uL"},
      {"measurement": "ALANINE AMINOTRANSFERASE", "setting": "[4]", "result": 30.33, "unit": "u/L"},
      {"measurement": "ALKALINE PHOSPHATASE", "setting": "[4]", "result": 386.33, "unit": "u/L"},
      {"measurement": "ASPARTATE AMINOTRANSFERASE", "setting": "[4]", "result": 62.67, "unit": "u/L"},
      {"measurement": "CARBON DIOXIDE", "setting": "[4]", "result": 25.33, "unit": "mmol/L"},
      {"measurement": "CHOLESTEROL", "setting": "[4]", "result": 66.67, "unit": "mg/dL"},
      {"measurement": "CREATINE PHOSPHOKINASE", "setting": "[4]", "result": 237, "unit": "u/L"},
      {"measurement": "CREATININE", "setting": "[4]", "result": 0.18, "unit": "mg/dL"},
      {"measurement": "GLUCOSE", "setting": "[4]", "result": 176.33, "unit": "mg/dL"},
      {"measurement": "LACTATE DEHYDROGENASE", "setting": "[4]", "result": 101, "unit": "u/L"},
      {"measurement": "PHOSPHORUS", "setting": "[4]", "result": 12.13, "unit": "mg/dL"},
      {"measurement": "POTASSIUM", "setting": "[4]", "result": 6.6, "unit": "MEQ/L"},
      {"measurement": "TOTAL BILIRUBIN", "setting": "[4]", "result": 0.13, "unit": "mg/dL"},
      {"measurement": "TOTAL PROTEIN", "setting": "[4]", "result": 6.07, "unit": "G/DL"}
    ]}
  ]
}
